Key:
Format in all cases: cell-based
MRGPRX2 [1] = target: T1, MRGPRX2 (Homo sapiens, UniProt Q96LB1); test: MRGPRX2 FLIPR calcium mobilization assay; parameters: host or cells: CHO-K1; details: CHO-K1 cells stably expressing human MRGPRX2; Ca2+ release; agonist Cortistatin-14 at EC80
T1 sequence (Q96LB1 1-330): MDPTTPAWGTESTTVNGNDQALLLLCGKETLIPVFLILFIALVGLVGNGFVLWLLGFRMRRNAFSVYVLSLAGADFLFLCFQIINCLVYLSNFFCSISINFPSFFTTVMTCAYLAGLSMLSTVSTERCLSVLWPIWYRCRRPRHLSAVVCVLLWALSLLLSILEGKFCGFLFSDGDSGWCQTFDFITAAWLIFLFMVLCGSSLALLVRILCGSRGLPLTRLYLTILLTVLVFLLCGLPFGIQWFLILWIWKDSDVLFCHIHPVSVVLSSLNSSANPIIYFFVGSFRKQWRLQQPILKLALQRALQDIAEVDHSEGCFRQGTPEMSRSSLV
Description: Example A. MRGPRX2 FLIPR Calcium Mobilization Assay
Chinese hamster ovary (CHO-K1) cells stably expressing human MRGPRX2 were purchased from Genescript (Piscataway, NJ). The cells were maintained in culture medium (Ham's F-12K) containing 10% (v/v) FBS, 200 μg/mL Zeocin, 100 units/mL penicillin G and 100 μg/mL streptomycin (Life Technologies, Carlsbad, CA). For the assay, the cells were harvested and resuspended with culture medium without Zeocin before plating at 8000 cells per well in 20 μL in 384-well black clear bottom cell culture plates (VWR, Radnor, PA). After 24 hour culture at 37° C. and 5% CO2, the cells were loaded with 20 μL/well of calcium dye (FLIPR Calcium 6 Assay Kit, Molecular Devices, San Jose, CA) diluted in loading buffer (1× Hank's Balanced Salt Solution (HBSS), 5 mM probenecid, 20 mM 4-(2-hydroxyethyl)-1-piperazineethanesulfonic acid (HEPES), pH 7.4, VWR, Radnor, PA) followed with 45 min. incubation at 37° C. and 40 min. at r.t. in the dark. Cells were then treated with the addition of 10 uL/well test compounds with a range of increasing concentrations diluted in the assay buffer (1×HBSS, 20 mM HEPES, pH 7.4, VWR, Radnor, PA) with FLIPR Penta (Molecular Devices. San Jose, CA) and incubated for 30 min. at r.t. Ca^2+ release was measured with FLIPR Penta with 10 seconds basal fluorescence measurement, then 12.5 μL of 5× agonist Cortistatin-14 (Tocris, Minneapolis, MN) at final concentration corresponding to the EC80 were added followed with continued fluorescence signal monitoring for an additional 110 seconds. The base line adjusted (median of first 10s base line) max value of the Relative Fluorescence Unit (RFU) was plotted against compound concentrations. Wells with no compound were served as the positive controls, and wells with high concentration of reference antagonist were used as negative controls. IC50 curves were globally fitted with 3- or 4-parameter Hill equation in a Genedata Screener (Genedata Basel, Switzerland).

MRGPRX2 [2] = target: T1, MRGPRX2; test: MRGPRX2 β-Arrestin recruitment assay (PathHunter); parameters: host or cells: CHO-K1 (PathHunter); details: PathHunter CHO-K1 MRGPRX2 β-Arrestin cell line; agonist Cortistatin 14 0.25 μM
Method in brief: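 CHO-K1 PathHunter cells co-expressing ProLink-tagged MRGPRX2 and enzyme-acceptor-tagged β-arrestin were preincubated with compound 1 h at 37° C., then stimulated with cortistatin-14 (0.25 μM final) for 90 min. Enzyme-complementation luminescence read after 1 h detection; data normalized to DMSO and reference antagonist, IC50 from 3- or 4-parameter Hill fit.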

MRGPRX2 [3] = target: T1, MRGPRX2; test: MRGPRX2 IP1 HTRF assay; parameters: host or cells: CHO-K1; details: CHO-K1 cells stably expressing human MRGPRX2; IP1 accumulation; agonist Cortistatin 14 1 μM
Method in brief: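 CHO-K1 cells stably expressing human MRGPRX2, preincubated with compound 1 h at 37 °C, then stimulated with 1 μM Cortistatin 14 for 1 h. IP1 measured by HTRF against standard curve, normalized to DMSO and reference antagonist controls; IC50 from 3- or 4-parameter Hill fit.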

SMILES: NS(=O)(=O)N1CC[C@](CNc2cc(C(F)(F)F)nc3cc(C(F)(F)F)nn23)(c2ccccc2)C1 (stereo in doubt) [Example 3, 3-(((2,5-Bis(trifluoromethyl)pyrazolo[1,5-a]pyrimidin-7-yl)amino)methyl)-3-phenylpyrrolidine-1-sulfonamide]
- IC50 (MRGPRX2 [1]): 0.0001 to 0.1 µM
- IC50 (MRGPRX2 [2]): 0.1 to 1 µM
- IC50 (MRGPRX2 [3]): 0.0001 to 0.1 µM

SMILES: NC(=O)N1CCC(CNc2cc(C(F)(F)F)nc3cc(C(F)(F)F)nn23)(c2ccccc2)C1 (stereo not shown) [Example 4, 3-(((2,5-Bis(trifluoromethyl)pyrazolo[1,5-a]pyrimidin-7-yl)amino)methyl)-3-phenylpyrrolidine-1-carboxamide]
- IC50 (MRGPRX2 [1]): 0.0001 to 0.1 µM
- IC50 (MRGPRX2 [2]): 0.0001 to 0.1 µM
- IC50 (MRGPRX2 [3]): 0.0001 to 0.1 µM

SMILES: NS(=O)(=O)N1CCC(CNc2cc(C(F)(F)F)nc3cc(C(F)(F)F)nn23)(c2ccccc2)CC1 [Example 6, 4-(((2,5-Bis(trifluoromethyl)pyrazolo[1,5-a]pyrimidin-7-yl)amino)methyl)-4-phenylpiperidine-1-sulfonamide]
- IC50 (MRGPRX2 [1]): 0.0001 to 0.1 µM
- IC50 (MRGPRX2 [2]): 0.0001 to 0.1 µM
- IC50 (MRGPRX2 [3]): 0.0001 to 0.1 µM

SMILES: Cc1cc2nc(C(F)(F)F)cc(NCC3(c4ccccc4)CCNCC3)n2n1 [Example 8, 2-Methyl-N-((4-phenylpiperidin-4-yl)methyl)-5-(trifluoromethyl)pyrazolo[1,5-a]pyrimidin-7-amine]
- IC50 (MRGPRX2 [1]): 0.0001 to 0.1 µM
- IC50 (MRGPRX2 [2]): 0.0001 to 0.1 µM
- IC50 (MRGPRX2 [3]): 0.1 to 1 µM

SMILES: NS(=O)(=O)N1CC(CNc2cc(C(F)(F)F)nc3cc(C(F)(F)F)nn23)(n2cc(F)cn2)C1 [Example 9, 3-(((2,5-Bis(trifluoromethyl)pyrazolo[1,5-a]pyrimidin-7-yl)amino)methyl)-3-(4-fluoro-1H-pyrazol-1-yl)azetidine-1-sulfonamide]
- IC50 (MRGPRX2 [1]): 0.0001 to 0.1 µM
- IC50 (MRGPRX2 [2]): 0.0001 to 0.1 µM
- IC50 (MRGPRX2 [3]): 0.0001 to 0.1 µM

SMILES: CNC(=O)N1CCC(CNc2cc(C)nc3nc(C(F)(F)F)nn23)(c2ccccc2)CC1 [Example 18, N-Methyl-4-(((5-methyl-2-(trifluoromethyl)-[1,2,4]triazolo[1,5-a]pyrimidin-7-yl)amino)methyl)-4-phenylpiperidine-1-carboxamide]
- IC50 (MRGPRX2 [1]): 0.0001 to 0.1 µM
- IC50 (MRGPRX2 [2]): 0.0001 to 0.1 µM
- IC50 (MRGPRX2 [3]): 0.0001 to 0.1 µM

SMILES: CC(=O)N1CCC(CNc2cccc3nc(C(F)(F)F)cn23)(c2ccccc2)CC1 [Example 20, 1-(4-Phenyl-4-(((2-(trifluoromethyl)imidazo[1,2-a]pyridin-5-yl)amino)methyl)piperidin-1-yl)ethan-1-one]
- IC50 (MRGPRX2 [1]): 0.0001 to 0.1 µM
- IC50 (MRGPRX2 [2]): 0.0001 to 0.1 µM
- IC50 (MRGPRX2 [3]): 0.0001 to 0.1 µM

SMILES: CNC(=O)N1CCC(CNc2cccc3nc(C(F)(F)F)cn23)(c2ccccc2)CC1 [Example 21, N-Methyl-4-phenyl-4-(((2-(trifluoromethyl)imidazo[1,2-a]pyridin-5-yl)amino)methyl)piperidine-1-carboxamide]
- IC50 (MRGPRX2 [1]): 0.0001 to 0.1 µM
- IC50 (MRGPRX2 [2]): 0.0001 to 0.1 µM
- IC50 (MRGPRX2 [3]): 0.0001 to 0.1 µM

SMILES: CNC(=O)N1CCC(CNc2cc(Cl)cc3nc(C(F)(F)F)cn23)(c2ccccc2)CC1 [Example 27, 4-(((7-Chloro-2-(trifluoromethyl)imidazo[1,2-a]pyridin-5-yl)amino)methyl)-N-methyl-4-phenylpiperidine-1-carboxamide]
- IC50 (MRGPRX2 [1]): 0.0001 to 0.1 µM
- IC50 (MRGPRX2 [3]): 0.0001 to 0.1 µM

SMILES: CNC(=O)N1CCC(CNc2cc(C)cc3nc(C(F)(F)F)cn23)(c2ccccc2)CC1 [Example 28, N-Methyl-4-(((7-methyl-2-(trifluoromethyl)imidazo[1,2-a]pyridin-5-yl)amino)methyl)-4-phenylpiperidine-1-carboxamide]
- IC50 (MRGPRX2 [1]): 0.0001 to 0.1 µM
- IC50 (MRGPRX2 [3]): 0.0001 to 0.1 µM

SMILES: CNC(=O)N1CCC(CNc2cccc3nc(C(C)C)cn23)(c2ccccc2)CC1 [Example 29, 4-(((2-Isopropylimidazo[1,2-a]pyridin-5-yl)amino)methyl)-N-methyl-4-phenylpiperidine-1-carboxamide]
- IC50 (MRGPRX2 [1]): 0.0001 to 0.1 µM
- IC50 (MRGPRX2 [3]): 0.1 to 1 µM

SMILES: NS(=O)(=O)N1CC(CNc2cc(C(F)(F)F)nc3cc(C(F)(F)F)nn23)(c2ccc(F)cc2)C1 [Example 30, 3-(((2,5-Bis(trifluoromethyl)pyrazolo[1,5-a]pyrimidin-7-yl)amino)methyl)-3-(4-fluorophenyl)azetidine-1-sulfonamide]
- IC50 (MRGPRX2 [1]): 0.0001 to 0.1 µM
- IC50 (MRGPRX2 [2]): 0.0001 to 0.1 µM
- IC50 (MRGPRX2 [3]): 0.0001 to 0.1 µM

SMILES: NC(=O)N1CC(CNc2cc(C(F)(F)F)nc3cc(C(F)(F)F)nn23)(c2ccc(F)cc2)C1 [Example 31, 3-(((2,5-Bis(trifluoromethyl)pyrazolo[1,5-a]pyrimidin-7-yl)amino)methyl)-3-(4-fluorophenyl)azetidine-1-carboxamide]
- IC50 (MRGPRX2 [1]): 0.0001 to 0.1 µM
- IC50 (MRGPRX2 [2]): 0.0001 to 0.1 µM
- IC50 (MRGPRX2 [3]): 0.0001 to 0.1 µM

SMILES: NS(=O)(=O)N1CC(CNc2cccc3nc(C(F)(F)F)nn23)(c2ccc(F)cc2)C1 [Example 32, 3-(4-Fluorophenyl)-3-(((2-(trifluoromethyl)-[1,2,4]triazolo[1,5-a]pyridin-5-yl)amino)methyl)azetidine-1-sulfonamide]
- IC50 (MRGPRX2 [1]): 0.0001 to 0.1 µM
- IC50 (MRGPRX2 [2]): 0.0001 to 0.1 µM
- IC50 (MRGPRX2 [3]): 0.0001 to 0.1 µM

SMILES: NC(=O)N1CC(CNc2cccc3nc(C(F)(F)F)nn23)(c2ccc(F)cc2)C1 [Example 33, 3-(4-Fluorophenyl)-3-(((2-(trifluoromethyl)-[1,2,4]triazolo[1,5-a]pyridin-5-yl)amino)methyl)azetidine-1-carboxamide]
- IC50 (MRGPRX2 [1]): 0.0001 to 0.1 µM
- IC50 (MRGPRX2 [2]): 0.0001 to 0.1 µM
- IC50 (MRGPRX2 [3]): 0.0001 to 0.1 µM

SMILES: NS(=O)(=O)N1CC(CNc2cccc3nc(C(F)(F)F)cn23)(c2ccc(F)cc2)C1 [Example 34, 3-(4-Fluorophenyl)-3-(((2-(trifluoromethyl)imidazo[1,2-a]pyridin-5-yl)amino)methyl)azetidine-1-sulfonamide]
- IC50 (MRGPRX2 [1]): 0.0001 to 0.1 µM
- IC50 (MRGPRX2 [3]): 0.0001 to 0.1 µM

SMILES: NC(=O)N1CC(CNc2cccc3nc(C(F)(F)F)cn23)(c2ccc(F)cc2)C1 [Example 35, 3-(4-Fluorophenyl)-3-(((2-(trifluoromethyl)imidazo[1,2-a]pyridin-5-yl)amino)methyl)azetidine-1-carboxamide]
- IC50 (MRGPRX2 [1]): 0.0001 to 0.1 µM
- IC50 (MRGPRX2 [3]): 0.0001 to 0.1 µM

SMILES: Fc1ccc(C2(CNc3cccc4nc(C(F)(F)F)cn34)CCC2)cc1 [Example 36, N-((1-(4-Fluorophenyl)cyclobutyl)methyl)-2-(trifluoromethyl)imidazo[1,2-a]pyridin-5-amine]
- IC50 (MRGPRX2 [1]): 0.0001 to 0.1 µM
- IC50 (MRGPRX2 [2]): 0.0001 to 0.1 µM
- IC50 (MRGPRX2 [3]): 0.0001 to 0.1 µM

SMILES: FC(F)(F)c1cn2c(NCC3(c4ccncc4)CCC3)cccc2n1 [Example 37, N-((1-(Pyridin-4-yl)cyclobutyl)methyl)-2-(trifluoromethyl)imidazo[1,2-a]pyridin-5-amine]
- IC50 (MRGPRX2 [1]): 0.0001 to 0.1 µM
- IC50 (MRGPRX2 [2]): 0.0001 to 0.1 µM
- IC50 (MRGPRX2 [3]): 0.0001 to 0.1 µM

SMILES: FC(F)(F)c1cn2c(NCC3(c4ccc(Br)cc4)CCC3)cccc2n1 [Example 38, N-((1-(4-Bromophenyl)cyclobutyl)methyl)-2-(trifluoromethyl)imidazo[1,2-a]pyridin-5-amine]
- IC50 (MRGPRX2 [1]): 0.0001 to 0.1 µM
- IC50 (MRGPRX2 [3]): 0.0001 to 0.1 µM

SMILES: Cc1cc2nc(C(F)(F)F)cc(NCC3(c4ccccc4)CCOC3)n2n1 (stereo not shown) [Example 77, 2-Methyl-N-((3-phenyltetrahydrofuran-3-yl)methyl)-5-(trifluoromethyl)pyrazolo[1,5-a]pyrimidin-7-amine]
- IC50 (MRGPRX2 [1]): 0.0001 to 0.1 µM
- IC50 (MRGPRX2 [3]): 0.1 to 1 µM

SMILES: N#Cc1cc2nc(Cl)cc(NCC3(c4ccccc4)CCNCC3)n2n1 [Example 104, 5-Chloro-7-(((4-phenylpiperidin-4-yl)methyl)amino)pyrazolo[1,5-a]pyrimidine-2-carbonitrile]
- IC50 (MRGPRX2 [1]): 0.1 to 1 µM
- IC50 (MRGPRX2 [3]): > 1 µM

From US20250084087A1, “BICYCLIC HETEROCYCLES AS MRGPRX2 ANTAGONISTS” (Incyte Corporation, priority 2023, published 2025)
